Data: patent US6310040A, “Treating retinal neuronal disorders by the application of insulin-like growth factors and analogs” (Cephalon, Inc., priority 1992, dated 2001)
Like-named read-outs stand apart in the source and are kept apart here. Non-standard residues stand in square brackets, D forms with d. No end group written: not given here. Tyr(3,5-I2) = N[C@@H](Cc1cc(I)c(O)c(I)c1)C(=O)O

Tests used:
photoreceptor cells = assay type: cell-based, rat
Method: To quantitate this assay, we developed a cell-based Rho42 ELISA test as follows: Several postnatal rat retinal cultures containing different numbers of cells, were incubated for 2-4 days following which cultures were fixed and immunolabelled with either the Rho42 monoclonal antibody, or the nonspecific monoclonal antibody P3, secreted by the myeloma cell line P3X6Ag8. Antibody binding was detected using a secondary antibody labelled with horseradish peroxidase and a chromogenic substrate O-phenylenediamine (OPD), having a maximum absorption wavelength of 490 nm. The level of absorption of light at 490 nm measured in the cultures is therefore directly related to the amount of primary antibody that originally bound to the cells. In FIG. 8 it can be seen that there is a linear relationship between the level of absorption at 490 nm and the number of cells in each culture.
Next, rat retinal neuronal cultures were incubated in the presence of IGF-I or IGF-II (54-67) for 48 hours following which they were subjected to the cell-based ELISA test as described above. Both IGF-I and IGF-II (54-67) promoted the survival of photoreceptor cells by 20-30% compared with control untreated cultures.

[1] = system: postnatal rat retinal neuronal cells; assay: calcein-AM survival assay, dissociated postnatal rat retinal neuronal cultures; assay type: cell-based; conditions: for fluorescence values (total number of cells surviving) versus untreated cultures: peptides 100 uM, postnatal rat retina; for fluorescence values (total number of cells surviving) versus untreated cultures / relative fluorescence units (total number of cells surviving) versus untreated control: 4 days; for relative fluorescence units (total number of cells surviving) versus untreated control: 100 nM, postnatal day 6 rat retina
Method: (§1) Retinas were dissected from embryonic chicks, dissociated by enzymatic digestion and cultured in vitro in defined insulin/serum-free medium according to Sato et al. (1979, Proc. Natl. Acad. Sci. USA 76:514-517). The number of cells in culture was measured using the vital stain calcein-AM. All cells are permeable to calcein-AM, but only live cells are capable of converting this compound into a fluorescent derivative detectable by ordinary methods. In the first experiment, calcein-AM (6 μM) was added to different cultures of retinal cells and the relationship between the level of fluorescence and the number of cells was determined.
To determine the concentration of IGF-I required to promote survival of pre- or postnatal retinal neurons in culture, the following experiments were carried out: Retinal neurons were prepared from dissociated retina obtained from 10 day old chick embryos, or from […] postnatal day 6 rats as described above. Cultures were incubated in the presence of increasing concentrations of IGF-I and the number of cells surviving at 48 hours post-treatment was measured in the calcein-AM assay. […] Based upon previously published data, the concentrations of IGF-I that promote neuronal cell survival in our experiments are consistent with the fact that IGF-I is acting through its own receptor (Karey et al., 1988, In Vitro Cell. Dev. Biol. 24:1107-1113; Ballard et al., 1988, Biochem. J. 249:721-726).
To determine whether retinal survival could be enhanced when incubated in the presence of functional derivatives of IGF-I and IGF-II, a linear fragment of IGF-II that is relatively conserved within both IGF-I and IGF-II, was tested in our assay. The fragment contained a sequence of 14 amino acids from IGF-II (amino acids 54-67, wherein the amino terminal amino acid of IGF-II is number 1).
To determine whether IGF-I, IGF-II, and IGF-III can promote the survival of retinal neuronal cells, dissociated cultures of postnatal rat retina were prepared and assayed for the total number of cells present after incubation in the presence or absence of IGFs. Retinas were dissected from postnatal day 6 rats, dissociated by enzymatic digestion and seeded at a density of 6.25×10^4 cells/cm^2 in defined insulin/serum-free media (Bottenstein et al., 1979, PNAS 76:514-517). These cultures are heterogenous, comprised of at least five independent retinal neuronal cell subpopulations, i.e., amacrine, bipolar, horizontal, photoreceptor and ganglion cells. Cultures were incubated in the presence or absence of 100 nM of each of the IGFs. The total number of cells remaining after 4 days was assayed by incubation with the vital stain calcein-AM at 6 uM. This compound is taken up by all cells but can only be converted to a fluorescent derivative by live cells.
To determine whether linear peptide derivatives of IGFs can support the survival of retinal neuronal cells, dissociated cultures of postnatal rat retina were prepared and assayed for the total number of cells present after incubation in the presence or absence of peptides (100 uM). Retinal neuronal cell cultures were prepared as described in Example 11 and the total number of cells surviving analyzed analogously. Peptides were derived from the amino acid regions 7-30 and 55-70 of IGF-I and […] and the region within IGF-II, amino acids 54-67.

[2] = system: photoreceptor subpopulation of cells; assay: Rho42 antibody fluorescence staining of postnatal rat retinal neuronal cultures; assay type: cell-based; conditions: 100 nM, 48 hours
Method: To determine whether IGF-I or IGF-II (54-67) could specifically promote survival of the photoreceptor subpopulation of cells in rat retinal neuronal cultures, the following experiments were carried out: The monoclonal antibody Rho42, which binds to an antigenic epitope within the extracellular domain of rhodopsin expressed on the surface of rod photoreceptor cells (Molday and MacKenzie, 1983, Biochemistry 22:653), was used in this assay. Postnatal rat retinal neuronal cultures were incubated in the presence or absence of 100 nM of IGF-I for 48 hours. Cells were harvested and reacted with Rho42 to which a fluorescent label had been added. Slides were prepared and the level of fluorescence in the cultures was qualitatively assessed using a fluorescence microscope.

retinal neurons = assay: retinal neurite regeneration, phase contrast microscopy; assay type: cell-based; conditions: 100 nM, 2-4 days following treatment, insulin/serum-free media
Method: To determine whether IGF-I affects retinal neurite regeneration, a population of neurons prepared from dissociated retina was cultured in defined insulin/serum-free media in the presence or absence of 100 nM IGF-I. Cultures were examined by phase contrast microscopy at 2-4 days following IGF-I treatment.

retinal neuronal cells = assay: calcein-AM survival assay, dissociated embryonic chick retinal cultures; assay type: cell-based; conditions: 48 hours post-treatment
Method: To determine whether IGF-1 acts to promote survival of retinal neuronal cells, dissociated cultures of avian retina were prepared from animals at various developmental ages and the number of cells present in the cultures, following incubation for 48 hours in the presence or absence of IGF-I, was measured.
as §1
In the next experiment, IGF-I was added to half of the cultures at a final concentration of 100 nM, and the number of cells remaining at 48 hours post-treatment was measured using the calcein-AM assay described above. […]

CC(C)C[C@H](NC(=O)[C@H](C)N)C(=O)N[C@@H](CC(C)C)C(=O)N[C@@H](CCC(=O)O)C(=O)N[C@H](C(=O)N[C@@H](Cc1ccc(O)cc1)C(=O)N[C@@H](CS)C(=O)N[C@@H](C)C(=O)N[C@H](C(=O)N1CCC[C@H]1C(=O)N[C@@H](C)C(=O)N[C@@H](CCCCN)C(=O)N[C@@H](CO)C(=O)N[C@@H](CCC(=O)O)C(=O)O)[C@@H](C)O)[C@@H](C)O [IGF-II (54-67), ALLETYCATPAKSE]
promoted survival of photoreceptor cells compared with control untreated cultures (photoreceptor cells; 48 h): 20-30%

CAPAKSE
fluorescence values (total number of cells surviving) versus untreated cultures [1]: higher fluorescence values than untreated cultures

CATPAKSE
fluorescence values (total number of cells surviving) versus untreated cultures [1]: higher fluorescence values than untreated cultures

EALLETYCATPAKSE
fluorescence values (total number of cells surviving) versus untreated cultures [1]: higher fluorescence values than untreated cultures

GAELVDALQFVSGDRGFYFNKPTG (GAELVDALQFYSGDRGFYFNKPTG)
fluorescence values (total number of cells surviving) versus untreated cultures [1]: higher fluorescence values than untreated cultures

IGF-I: Recombinant human insulin-like growth factor I (somatomedin C), 70 amino acids, SEQ ID NO:1
relative fluorescence units (total number of cells surviving) versus untreated control [1]: higher than that found for untreated control cultures
survival of postnatal retinal neurons versus concentration ([1]; postnatal day 6 rats, increasing concentrations, 48 hours post-treatment): promote survival of retinal neurons in culture in a dose-dependent manner
level of Rho42 fluorescence (photoreceptor survival), qualitative [2]: increased level of fluorescence compared to untreated cultures
cells with neurites (axonal regeneration) (retinal neurons): more cells with neurites than untreated control cultures
promoted survival of photoreceptor cells compared with control untreated cultures (photoreceptor cells; 48 hours, rat retinal neuronal cultures): 20-30%
enhanced survival of cells compared to control, untreated cultures (retinal neuronal cells; 100 nM, retinal cultures from embryos at 8, 10, 12 and 14 days of age): 20-60%
survival of prenatal retinal neurons versus concentration (retinal neuronal cells; 10 day old chick embryos, increasing concentrations): promote survival of retinal neurons in culture in a dose-dependent manner

IGF-II: Recombinant human insulin-like growth factor II, 67 amino acids, SEQ ID NO:16
relative fluorescence units (total number of cells surviving) versus untreated control [1]: higher than that found for untreated control cultures

IGF-III: truncated form of IGF-I lacking the three N-terminal amino acid residues, SEQ ID NO:2
relative fluorescence units (total number of cells surviving) versus untreated control [1]: higher than that found for untreated control cultures

TY(I2)CAPAKSE (T[Tyr(3,5-I2)]CAPAKSE) [iodinated TYCAPAKSE]
fluorescence values (total number of cells surviving) versus untreated cultures [1]: higher fluorescence values than untreated cultures

TYCAPA
fluorescence values (total number of cells surviving) versus untreated cultures [1]: higher fluorescence values than untreated cultures

YCAPA
fluorescence values (total number of cells surviving) versus untreated cultures [1]: higher fluorescence values than untreated cultures
